Measured values taken from patent publication US20170339957A1, “AQUEOUS DISPERSIONS” (Rohm and Haas Company, priority 2011, published 2017).

Assays:
[1] = pH 7.5 or lower; cited from earlier work
[2] = Protocol 1: dissolving BIT in basic solution (exotherm peak, pH, dissolution and inherent precipitation temperature); assay type: physicochemical
Source text: “Protocol 1” means the following: A mixture (herein “mixture 1”) was formed as follows: 151.18 g of BIT paste (concentration 83% to 85% BIT by weight based on the weight of the paste) was mixed with basic solution and with water. The amount of basic solution was chosen to have equivalent ratio of 1:1 with BIT, and the amount of water was chosen to make Mixture 1 have the desired concentration of BIT. In some cases, the process of mixing the ingredients of Mixture 1 is exothermic; in such cases, the peak temperature reached by the mixture was recorded as the “exotherm peak.” From that mixture, a sample of 100 g (herein the “test1 batch”) was used. If some or all of the BIT was not dissolved, the test1 batch was heated (up to a maximum of 61° C.), and if there was a temperature of 61° C. or below at which all the BIT was dissolved, that temperature was recorded as the “dissolution temperature.” If BIT is all dissolved at ambient temperature, the dissolution temperature is herein taken to be 23° C. Then, the inherent precipitation temperature was observed by cooling the test 1 batch to 0° C. or to a point at which BIT precipitated, whichever temperature is higher. Then, the test 1 batch was heated to a temperature (herein “T2”) at or above the dissolution temperature; while the solution was at temperature T2, thickener was added and acid solution was added.
In some of the Examples below, Protocol 1 was performed repeatedly, using various basic solutions and various concentrations of BIT. The purpose of these repeated performances of Protocol 1 was to answer the following question: “While using a specific basic solution and using temperatures between approximately 23° C. and approximately 60° C., when making aqueous mixture (I), what range of BIT concentration is possible?”

Structure (SMILES): O=c1[nH]sc2ccccc12 [BIT, 1,2-Benzisothiazolin-3-one]
- solubility in water [1]: low solubility
- BIT concentration range for making aqueous mixture (I) ([2]; using ammonia): 5%
- BIT concentration range for making aqueous mixture (I) ([2]; using diaminoethane): 5%
- BIT concentration range for making aqueous mixture (I) ([2]; using mono-ethanolamine): 5%
